We go through 1 compound from article PMC2898210 (ACS medicinal chemistry letters, 2010).

Each structure is given as a SMILES string.

A word on the Kd: it is the equilibrium constant for the complex coming apart. A low value points to tighter binding.

The assay has as its target polo-box domain (PBD) of human polo-like kinase 1 (Plk1) (Homo sapiens, UniProt P53350). Nature of the assay: ELISA-based PBD competition assay against p-T78 peptide of PBIP1. The format is binding. (An ELISA detects its analyte on a solid surface through an enzyme-linked reagent.)

Chain of polo-box domain (PBD) of human polo-like kinase 1 (Plk1) (P53350 367-603 limits assumed): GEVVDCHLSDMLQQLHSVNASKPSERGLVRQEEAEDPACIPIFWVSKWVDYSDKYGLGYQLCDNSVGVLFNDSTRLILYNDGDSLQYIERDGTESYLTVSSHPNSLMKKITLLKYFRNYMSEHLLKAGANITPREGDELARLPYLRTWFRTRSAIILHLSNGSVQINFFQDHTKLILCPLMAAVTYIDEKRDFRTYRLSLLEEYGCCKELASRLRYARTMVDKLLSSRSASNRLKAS

As to `O=c1c(O)cccc2cc(O)c(O)c(O)c12` [compound 2, Purpurogallin], the Kd is about 2700 nM.
